Reference: patent US20110237605A1, “Molecular Crystal of (4-(1,8-Naphthyridin-2-YL)Piperidin-1-YL)Pyrimidine Derivative” (priority 2010, published 2011)

Experiment: Physical (polymorph) stability of suspension to bead milling and autoclaving, followed by XRPD
Type: physicochemical
Procedure: The following experiment evidences such stability of the claimed molecular crystal.
A 30 mg/ml suspension of the compound having Formula I (referred to as “BOL-303050”) was made in PBS-0.15% Polysorbate 80 and put in a vial. The contents of the vial were milled by 1 mm zirconia milling beads for 5 times, 2 minutes each at 2400 rpm in a DAC 150 FV Speedmixer and shaken to suspend the drug. An aliquot was withdrawn for XRPD (see FIG. 4, suspension milled). The withdrawn aliquot was centrifuged and dried before XRPD scan.
The remainder of the vial contents was autoclaved at 121° c. for 30 minutes. After autoclaving another sample was removed for XRPD (see FIG. 4, suspension milled and autoclaved). Sample was centrifuged and dried before XRPD scan.
To the remaining sample, 1 mm zirconia milling beads were added and the sample was milled 5 times, for 2 minutes each at 2400 rpm in a DAC 150 FV Speedmixer. After bead milling, a sample was removed for XRPD (see FIG. 4, suspension milled, autoclaved then milled again). Sample was centrifuged and dried before XRPD scan.
The remainder was autoclaved at 121° C. for 30 minutes (see FIG. 4, suspension milled, autoclaved, milled again, then autoclaved). Sample was centrifuged and dried before XRPD scan.
Samples were compared to the XRPD spectrum of the original API sample.

Row | SMILES | polymorphic change by XRPD on autoclaving (30 mg/ml suspension in PBS-0.15% Polysorbate 80, milled, autoclaved at 121° C. for 30 minutes (initial cycle)) | effect of milling on drug polymorph by XRPD (1 mm zirconia milling beads, 5 times, 2 minutes each at 2400 rpm) | stability of crystal form, comparison of XRPD spectra (FIG. 4) (further milling and/or autoclaving) | effect of subsequent autoclaving on polymorph by XRPD (milled, autoclaved, milled again, then autoclaved at 121° C. for 30 minutes)
1 | COc1ccc(S(=O)(=O)N[C@@H](CNc2nc(C)nc(N3CCC(c4ccc5c(n4)NCCC5)CC3)c2C)C(=O)O)cc1 [BOL-303050, (S)-3-(2,5-dimethyl-6-(4-(5,6,7,8-tetrahydro-1,8-naphthyridin-2-yl)piperidin-1-yl)pyrimidin-4-ylamino)-2-(4-methoxyphenylsulfonamido)propanoic acid] | polymorphic changes occurred only during the initial autoclave cycle | did not affect the drug polymorph |  | 
2 | COc1ccc(S(=O)(=O)N[C@@H](CNc2nc(C)nc(N3CCC(c4ccc5c(n4)NCCC5)CC3)c2C)C(=O)O)cc1 [claimed novel drug polymorph, (S)-3-(2,5-dimethyl-6-(4-(5,6,7,8-tetrahydro-1,8-naphthyridin-2-yl)piperidin-1-yl)pyrimidin-4-ylamino)-2-(4-methoxyphenylsulfonamido)propanoic acid] |  |  | stable | did not affect the claimed novel drug polymorph
